The record followed here is patent publication US7718688B2, “Nitrobenzindoles and their use in cancer therapy” (Auckland Uniservices Limited, priority 2004, dated 2010).

The subject of data set [1] is HT29: human colon cancer cell line. As to the kind of experiment: Proliferation IC50 assay, oxic/hypoxic, HT29. The data set is classed as cell-based. The settings on record: Table 3; for IC50: 4 h exposure under aerobic conditions; for HCR (hypoxic cytotoxicity ratio) HT29: IC50(aerobic)/IC10(hypoxic).
The test system of data set [2] is SKOV3: human ovarian carcinoma cell line. Kind of data set: Proliferation IC50 assay, oxic/hypoxic, SKOV3. It is filed as cell-based. The settings on record: Table 3; for IC50: 4 h exposure under aerobic conditions; for HCR (hypoxic cytotoxicity ratio) SKOV3: IC50(aerobic)/IC10(hypoxic).

Where a name gives a salt, the structure may show the parent alone. Bounds are passed on as bounds.

Compound `COc1cc2cc(C(=O)N3CC(CCl)c4c3cc([N+](=O)[O-])c3cc(S(=O)(=O)NCCOP(=O)(O)O)ccc43)[nH]c2c(OC)c1OC` (centres unmarked) came in with a melting point of 228 to 232 °C.

On to `CN(C)CCOc1ccc2[nH]c(C(=O)N3CC(CCl)c4c3cc([N+](=O)[O-])c3cc(C(=O)NCCO)ccc43)cc2c1` (centres unmarked) [Compound 19, 1-(Chloromethyl)-3-(5-[2-(dimethylamino)ethoxy]indol-2-carbonyl)-N-(2-hydroxyethyl)-5-nitro-1,2-dihydro-3H-benzo[e]indole-7-carboxamide], for which the half-maximal inhibitory concentration (IC50) in data set [1] (Homo sapiens, HT-29) was 12 µM; in data set [2] (Homo sapiens, SK-OV-3), 8.9 µM. For the same compound, the “HCR (hypoxic cytotoxicity ratio) HT29” value in data set [1] was found to be 490. In data set [2], the “HCR (hypoxic cytotoxicity ratio) SKOV3” value is on record as 160.

As to `COc1cc2cc(C(=O)N3CC(CCl)c4c3cc([N+](=O)[O-])c3ccc(C(=O)NCCN(C)C)cc43)[nH]c2c(OC)c1OC` (centres unmarked) [Compound 44, 1-(Chloromethyl)-N-[2-(dimethylamino)ethyl]-5-nitro-3-(5,6,7-trimethoxyindol-2-carbonyl)-1,2-dihydro-3H-benzo[e]indole-8-carboxamide], the IC50 in data set [1] (Homo sapiens, HT-29) turned out to be 1.3 µM; in data set [2] (Homo sapiens, SK-OV-3) it was 2.5 µM. Further, the “HCR (hypoxic cytotoxicity ratio) HT29” value in data set [1] is given as 2.4. The “HCR (hypoxic cytotoxicity ratio) SKOV3” value in data set [2] is 16.

Take `CNS(=O)(=O)c1ccc2c3c(cc([N+](=O)[O-])c2c1)N(C(=O)c1cc2cc(OCCN(C)C)ccc2[nH]1)CC3CCl` (centres unmarked) [Compound 32, 1-(Chloromethyl)-3-{5-[2-(dimethylamino)ethoxy]indol-2-carbonyl}-N-methyl-5-nitro-1,2-dihydro-3H-benzo[e]indole-7-sulfonamide]: the IC50 in data set [1] (Homo sapiens, HT-29) amounted to 2.7 µM; in data set [2] (Homo sapiens, SK-OV-3), 2.6 µM. In addition, the “HCR (hypoxic cytotoxicity ratio) HT29” value in data set [1] is given as 24. Besides, the “HCR (hypoxic cytotoxicity ratio) SKOV3” value in data set [2] was 21.

`COc1cc2cc(C(=O)N3CC(CCl)c4c3cc([N+](=O)[O-])c3cc(C#N)ccc43)[nH]c2c(OC)c1OC` (centres unmarked) [Compound 21]: in data set [1], the IC50 turned out to be 5.3 µM and the “HCR (hypoxic cytotoxicity ratio) HT29” value is recorded as 2.5. Moreover, in data set [2], half-maximal inhibition (IC50) required 6.4 µM and the “HCR (hypoxic cytotoxicity ratio) SKOV3” value is recorded as 13.

Take `CN(C)CCOc1ccc2[nH]c(C(=O)N3CC(CCl)c4c3cc([N+](=O)[O-])c3c([N+](=O)[O-])cccc43)cc2c1` (centres unmarked) (as salt: HCl) [Compound 2, 1-(Chloromethyl)-3-(5-[2-(dimethylamino)ethoxy]indol-2-carbonyl)-5,6-dinitro-1,2-dihydro-3H-benzo[e]indole]: the melting point fell in the range of 225 to 226 °C.

The compound `CN(C)CCOc1ccc2[nH]c(C(=O)N3CC(CCl)c4c3cc([N+](=O)[O-])c3cc(S(C)(=O)=O)ccc43)cc2c1` (centres unmarked) (as salt: HCl) [Compound 24, 1-(Chloromethyl)-3-{5-[2-(dimethylamino)ethoxy]indol-2-carbonyl}-7-(methylsulfonyl)-5-nitro-1,2-dihydro-3H-benzo[e]indole] returned a melting point of 250 to 252 °C.

As for `CN(C)CCOc1ccc2[nH]c(C(=O)N3CC(CCl)c4c3cc([N+](=O)[O-])c3cccc([N+](=O)[O-])c43)cc2c1` (centres unmarked) (as salt: HCl) [Compound 52, 1-(Chloromethyl)-3-{5-[2-(dimethylamino)ethoxy]indol-2-carbonyl}-5,9-dinitro-1,2-dihydro-3H-benzo[e]indole], the melting point lay in the range of 187 to 191 °C.

Take `COc1cc2cc(C(=O)N3CC(CCl)c4c3cc([N+](=O)[O-])c3ccccc43)[nH]c2c(OC)c1OC` (centres unmarked) [Compound R1, reference compound]: the half-maximal inhibitory concentration (IC50) amounted to 3.4 µM in data set [1] (Homo sapiens, HT-29) and 4.2 µM in data set [2] (Homo sapiens, SK-OV-3). Further, in data set [1], the “HCR (hypoxic cytotoxicity ratio) HT29” value was 2.5. Further, the “HCR (hypoxic cytotoxicity ratio) SKOV3” value in data set [2] is given as 2.8.

`CN(C)CCOc1ccc2[nH]c(C(=O)N3CC(CCl)c4c3cc([N+](=O)[O-])c3ccc(S(C)(=O)=O)cc43)cc2c1` (centres unmarked) (as salt: HCl) [Compound 47, 1-(Chloromethyl)-3-{5-[2-(dimethylamino)ethoxy]indol-2-carbonyl}-8-(methylsulfonyl)-5-nitro-1,2-dihydro-3H-benzo[e]indole] came in with a melting point of over 300 °C.

For the compound `COc1cc2cc(C(=O)N3CC(CCl)c4c3cc([N+](=O)[O-])c3cc(S(N)(=O)=O)ccc43)[nH]c2c(OC)c1OC` (centres unmarked) [Compound 25, 1-(Chloromethyl)-5-nitro-3-(5,6,7-trimethoxyindol-2-carbonyl)-1,2-dihydro-3H-benzo[e]indole-7-sulfonamide], the IC50 in data set [1] (Homo sapiens, HT-29) worked out at 43 µM; in data set [2] (Homo sapiens, SK-OV-3) it was 37 µM. In addition, the “HCR (hypoxic cytotoxicity ratio) HT29” value in data set [1] came to 3.6. For the same compound, the “HCR (hypoxic cytotoxicity ratio) SKOV3” value in data set [2] is recorded as 10.

In turn, `CN(C)CCOc1ccc2[nH]c(C(=O)N3CC(CCl)c4c3cc([N+](=O)[O-])c3cc(C#N)ccc43)cc2c1` (centres unmarked) (as salt: HCl) [Compound 22, 1-(Chloromethyl)-3-{5-[2-(dimethylamino)ethoxy]indol-2-carbonyl}-5-nitro-1,2-dihydro-3H-benzo[e]indole-7-carbonitrile] displayed a melting point of over 300 °C.

For the compound `CN(C)CCOc1ccc2[nH]c(C(=O)N3CC(CCl)c4c3cc([N+](=O)[O-])c3cc(S(=O)(=O)N(C)C)ccc43)cc2c1` (centres unmarked) (as salt: HCl) [Compound 38, 1-(Chloromethyl)-3-{5-[2-(dimethylamino)ethoxy]indol-2-carbonyl}-N,N-dimethyl-5-nitro-1,2-dihydro-3H-benzo[e]indole-7-sulfonamide], the melting point is over 350 °C.

`CN(C)CCOc1ccc2[nH]c(C(=O)N3CC(CCl)c4c3cc([N+](=O)[O-])c3cc([N+](=O)[O-])ccc43)cc2c1` (centres unmarked) (as salt: HCl) [Compound 9, 1-(Chloromethyl)-3-{5-[2-(dimethylamino)ethoxy]indol-2-carbonyl}-5,7-dinitro-1,2-dihydro-3H-benzo[e]indole]: the melting point lay in the range of 263 to 264 °C.

Consider `NS(=O)(=O)c1ccc2c3c(cc([N+](=O)[O-])c2c1)N(C(=O)c1cc2cc(OCCO)ccc2[nH]1)CC3CCl` (centres unmarked), for which the melting point was in the range of 231 to 234 °C.

`CN(C)CCOc1ccc2[nH]c(C(=O)N3CC(CCl)c4c3cc([N+](=O)[O-])c3ccc(C(N)=O)cc43)cc2c1` (centres unmarked) (as salt: TFA) [Compound 43, 1-(Chloromethyl)-3-{5-[2-(dimethylamino)ethoxy]indol-2-carbonyl}-5-nitro-1,2-dihydro-3H-benzo[e]indole-8-carboxamide] returned a melting point of over 320 °C.

Turning to `COc1cc2cc(C(=O)N3CC(CCl)c4c3cc([N+](=O)[O-])c3ccc(C(=O)NCCN(C)C)cc43)[nH]c2c(OC)c1OC` (centres unmarked) (as salt: HCl) [Compound 44, 1-(Chloromethyl)-N-[2-(dimethylamino)ethyl]-5-nitro-3-(5,6,7-trimethoxyindol-2-carbonyl)-1,2-dihydro-3H-benzo[e]indole-8-carboxamide], the melting point was 228 to 229 °C (dec.).

With `COc1cc2cc(C(=O)N3CC(CCl)c4c3cc([N+](=O)[O-])c3cccc([N+](=O)[O-])c43)[nH]c2c(OC)c1OC` (centres unmarked) [Compound 51, 1-(Chloromethyl)-5,9-dinitro-(5,6,7-trimethoxyindol-2-carbonyl)-1,2-dihydro-3H-benzo[e]indole], the IC50 in data set [1] is 34 µM; in data set [2], 55 µM. Moreover, the “HCR (hypoxic cytotoxicity ratio) HT29” value in data set [1] is 1.2.

Turning to `CN(C)CCOc1ccc2[nH]c(C(=O)N3CC(CCl)c4c3cc([N+](=O)[O-])c3cc(S(=O)(=O)NN)ccc43)cc2c1.Cl.Cl` (centres unmarked) [Compound 31, 1-(Chloromethyl)-3-{5-[2-(dimethylamino)ethoxy]indol-2-carbonyl}-5-nitro-1,2-dihydro-3H-benzo[e]indole-7-sulfonohydrazide dihydrochloride], the 50% inhibitory concentration (IC50) came to 31 µM in data set [1] (Homo sapiens, HT-29) and 33 µM in data set [2] (Homo sapiens, SK-OV-3). Further, the “HCR (hypoxic cytotoxicity ratio) HT29” value in data set [1] is 220. The “HCR (hypoxic cytotoxicity ratio) SKOV3” value in data set [2] worked out at 160.

As for `CN(C)CCOc1ccc2[nH]c(C(=O)N3CC(CCl)c4c3cc([N+](=O)[O-])c3cc(S(=O)(=O)NO)ccc43)cc2c1.Cl` (centres unmarked) [Compound 30, 1-(Chloromethyl)-3-{5-[2-(dimethylamino)ethoxy]indol-2-carbonyl}-N-hydroxy-5-nitro-4,2-dihydro-3H-benzo[e]indole-7-sulfonamide hydrochloride], in data set [1], inhibition was half-maximal at 24 µM (IC50) and the “HCR (hypoxic cytotoxicity ratio) HT29” value was 160. In addition, in data set [2], the IC50 worked out at 24 µM and the “HCR (hypoxic cytotoxicity ratio) SKOV3” value was 55.

Regarding `CN(C)CCOc1ccc2[nH]c(C(=O)N3CC(CCl)c4c3cc([N+](=O)[O-])c3cc(S(=O)(=O)N(C)C)ccc43)cc2c1` (centres unmarked) [Compound 38, 1-(Chloromethyl)-3-{5-[2-(dimethylamino)ethoxy]indol-2-carbonyl}-N,N-dimethyl-5-nitro-1,2-dihydro-3H-benzo[e]indole-7-sulfonamide], the concentration for half-maximal inhibition (IC50) in data set [1] (Homo sapiens, HT-29) is 1.1 µM; in data set [2] (Homo sapiens, SK-OV-3), 0.5 µM. In data set [1], the “HCR (hypoxic cytotoxicity ratio) HT29” value turned out to be 3.6. The “HCR (hypoxic cytotoxicity ratio) SKOV3” value in data set [2] was found to be 2.4.

Consider `COC(=O)c1ccc2c([N+](=O)[O-])cc3c(c2c1)C(CCl)CN3C(=O)c1cc2cc(OCCN(C)C)ccc2[nH]1` (centres unmarked) [Compound 42, Methyl 1-(chloromethyl)-3-{5-[2-(dimethylamino)ethoxy]indol-2-carbonyl}-5-nitro-1,2-dihydro-3H-benzo[e]indole-8-carboxylate], for which the 50% inhibitory concentration (IC50) turned out to be 0.55 µM in data set [1] (Homo sapiens, HT-29) and 0.52 µM in data set [2] (Homo sapiens, SK-OV-3). In addition, in data set [1], the “HCR (hypoxic cytotoxicity ratio) HT29” value was determined as 1.6. Besides, the “HCR (hypoxic cytotoxicity ratio) SKOV3” value in data set [2] was 2.4.

For `CC(=O)c1cccc2c3c(cc([N+](=O)[O-])c12)N(C(=O)c1cc2cc(OCCN(C)C)ccc2[nH]1)CC3CCl` (centres unmarked) [Compound 4], in data set [1], half-maximal inhibition (IC50) required 0.2 µM and the “HCR (hypoxic cytotoxicity ratio) HT29” value worked out at 5.2. Moreover, in data set [2], the IC50 came to 0.64 µM and the “HCR (hypoxic cytotoxicity ratio) SKOV3” value amounted to 12.

Regarding `CN(C)CCOc1ccc2[nH]c(C(=O)N3CC(CCl)c4c3cc([N+](=O)[O-])c3cc([N+](=O)[O-])ccc43)cc2c1` (centres unmarked) [Compound 9, 1-(Chloromethyl)-3-{5-[2-(dimethylamino)ethoxy]indol-2-carbonyl}-5,7-dinitro-1,2-dihydro-3H-benzo[e]indole], the concentration for half-maximal inhibition (IC50) in data set [1] (Homo sapiens, HT-29) came to 0.89 µM; in data set [2] (Homo sapiens, SK-OV-3), 1.1 µM. The “HCR (hypoxic cytotoxicity ratio) HT29” value in data set [1] stood at 9.6. Further, in data set [2], the “HCR (hypoxic cytotoxicity ratio) SKOV3” value was 9.3.

As usually defined, the melting point is the temperature, or range, at which the solid turns liquid. In general, IC50 refers to the point on the concentration scale where inhibition reaches its midpoint.
